Measurements as given in patent US12077503B2, “Substituted cyclic amides and their use as herbicides” (FMC CORPORATION, priority 2015, dated 2024).

Experiments:
Assay type in all cases: in vivo
corn (Zea mays) [1] = test: Test G Pre-Emergence Protocol; conditions: Zea mays, pre-emergence, 312 h, evaluated after 13 days; for plant injury at 15.625 g/ha: 15.625 g ai/ha; for plant injury at 15.625 g/ha / plant injury at 250 g/ha: read-out: Corn damage rating (100=total damage to plant; 0=no damage to plant); for plant injury at 62.5 g/ha: 62.5 g ai/ha, 100=total damage to plant, 0=no damage to plant, read-out: plant damage rating, Corn; for plant injury at 250 g/ha: 250 g ai/ha
Summary of the method: (§1)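 Herbicidal effect was rated 13 days post-application on a scale where 100 equals total damage. Spraying took place the day after sowing, using 15.625, 62.5 or 250 g/ha of compound in a 50:50 acetone/water solution with 0.5% Tween 20.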

[2] = test system: giant foxtail (Setaria faberi); test: Test G Pre-Emergence Protocol; conditions: Setaria faberi, pre-emergence, 312 h, evaluated after 13 days; for pest or weed control at 15.625 g/ha: 15.625 g ai/ha; for pest or weed control at 15.625 g/ha / pest or weed control at 250 g/ha: read-out: Foxtail, Giant damage rating (100=total damage to plant; 0=no damage to plant); for pest or weed control at 62.5 g/ha: 62.5 g ai/ha, 100=total damage to plant, 0=no damage to plant, read-out: plant damage rating, Foxtail, Giant; for pest or weed control at 250 g/ha: 250 g ai/ha
Summary of the method: as §1

[3] = test system: ivy-leaved morning glory (Ipomoea hederacea); test: Test G Pre-Emergence Protocol; conditions: Ipomoea, pre-emergence, 312 h, evaluated after 13 days; for pest or weed control at 15.625 g/ha: 15.625 g ai/ha, read-out: Morning-glory, Ivy-leaved damage rating (100=total damage to plant; 0=no damage to plant); for pest or weed control at 62.5 g/ha: 62.5 g ai/ha, 100=total damage to plant, 0=no damage to plant, read-out: plant damage rating, Morningglory, Ivy-leaved; for pest or weed control at 250 g/ha: 250 g ai/ha, read-out: Morningglory, Ivy-leaved damage rating (100=total damage to plant; 0=no damage to plant)
Summary of the method: as §1

[4] = test system: velvetleaf (Abutilon theophrasti); test: Test G Pre-Emergence Protocol; conditions: Abutilon theophrasti, pre-emergence, 312 h, evaluated after 13 days; for pest or weed control at 15.625 g/ha: 15.625 g ai/ha; for pest or weed control at 15.625 g/ha / pest or weed control at 250 g/ha: read-out: Velvetleaf damage rating (100=total damage to plant; 0=no damage to plant); for pest or weed control at 62.5 g/ha: 62.5 g ai/ha, 100=total damage to plant, 0=no damage to plant, read-out: plant damage rating, Velvetleaf; for pest or weed control at 250 g/ha: 250 g ai/ha
Summary of the method: as §1

[5] = test system: redroot pigweed (Amaranthus retroflexus); test: Test G Pre-Emergence Protocol; conditions: Amaranthus retroflexus, pre-emergence, 312 h, evaluated after 13 days; for pest or weed control at 15.625 g/ha: 15.625 g ai/ha; for pest or weed control at 15.625 g/ha / pest or weed control at 250 g/ha: read-out: Pigweed, Redroot damage rating (100=total damage to plant; 0=no damage to plant); for pest or weed control at 62.5 g/ha: 62.5 g ai/ha, 100=total damage to plant, 0=no damage to plant, read-out: plant damage rating, Pigweed, Redroot; for pest or weed control at 250 g/ha: 250 g ai/ha
Summary of the method: as §1

[6] = test system: barnyardgrass (Echinochloa crus-galli); test: Test G Pre-Emergence Protocol; conditions: Echinochloa crus-galli, pre-emergence, 312 h, evaluated after 13 days; for pest or weed control at 15.625 g/ha: 15.625 g ai/ha, read-out: Barnyard grass damage rating (100=total damage to plant; 0=no damage to plant); for pest or weed control at 62.5 g/ha: 62.5 g ai/ha, 100=total damage to plant, 0=no damage to plant, read-out: plant damage rating, Barnyardgrass; for pest or weed control at 250 g/ha: 250 g ai/ha, read-out: Barnyardgrass damage rating (100=total damage to plant; 0=no damage to plant)
Summary of the method: as §1

corn (Zea mays) [7] = test: Test G Post-Emergence Protocol; conditions: Zea mays, post-emergence, 312 h; for plant injury at 15.625 g/ha: 15.625 g ai/ha, evaluated after 13 days (100=total damage to plant; 0=no damage to plant), read-out: Corn damage rating; for plant injury at 62.5 g/ha: 62.5 g ai/ha, read-out: Corn damage rating (100=total damage to plant; 0=no damage to plant); for plant injury at 62.5 g/ha / plant injury at 250 g/ha: evaluated after 13 days; for plant injury at 250 g/ha: 250 g ai/ha, read-out: damage to plant, Corn (100=total damage to plant; 0=no damage to plant)
Summary of the method: (§2)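 Seedlings grown 8 days in soil in a glasshouse (24/16 °C day/night, 14 h light, 65% humidity) were sprayed post-emergence with compound in acetone/water 50:50 plus 0.5% Tween 20 at 15.625, 62.5 or 250 g/ha. Damage was scored after 13 days on a 0–100 scale (100 = total damage).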

[8] = test system: giant foxtail (Setaria faberi); test: Test G Post-Emergence Protocol; conditions: Setaria faberi, post-emergence, 312 h; for pest or weed control at 15.625 g/ha: 15.625 g ai/ha, evaluated after 13 days (100=total damage to plant; 0=no damage to plant), read-out: Foxtail, Giant damage rating; for pest or weed control at 62.5 g/ha: 62.5 g ai/ha, read-out: Foxtail, Giant damage rating (100=total damage to plant; 0=no damage to plant); for pest or weed control at 62.5 g/ha / pest or weed control at 250 g/ha: evaluated after 13 days; for pest or weed control at 250 g/ha: 250 g ai/ha, read-out: damage to plant, Foxtail, Giant (100=total damage to plant; 0=no damage to plant)
Summary of the method: as §2

[9] = test system: ivy-leaved morning glory (Ipomoea hederacea); test: Test G Post-Emergence Protocol; conditions: Ipomoea, post-emergence, 312 h; for pest or weed control at 15.625 g/ha: 15.625 g ai/ha, evaluated after 13 days (100=total damage to plant; 0=no damage to plant), read-out: Morningglory, Ivy-leaved damage rating; for pest or weed control at 62.5 g/ha: 62.5 g ai/ha, read-out: Morningglory, Ivy-leaved damage rating (100=total damage to plant; 0=no damage to plant); for pest or weed control at 62.5 g/ha / pest or weed control at 250 g/ha: evaluated after 13 days; for pest or weed control at 250 g/ha: 250 g ai/ha, read-out: damage to plant, Morningglory, Ivy-leaved (100=total damage to plant; 0=no damage to plant)
Summary of the method: as §2

[10] = test system: velvetleaf (Abutilon theophrasti); test: Test G Post-Emergence Protocol; conditions: Abutilon theophrasti, post-emergence, 312 h; for pest or weed control at 15.625 g/ha: 15.625 g ai/ha, evaluated after 13 days (100=total damage to plant; 0=no damage to plant), read-out: Velvetleaf damage rating; for pest or weed control at 62.5 g/ha: 62.5 g ai/ha, read-out: Velvetleaf damage rating (100=total damage to plant; 0=no damage to plant); for pest or weed control at 62.5 g/ha / pest or weed control at 250 g/ha: evaluated after 13 days; for pest or weed control at 250 g/ha: 250 g ai/ha, read-out: damage to plant, Velvetleaf (100=total damage to plant; 0=no damage to plant)
Summary of the method: as §2

[11] = test system: redroot pigweed (Amaranthus retroflexus); test: Test G Post-Emergence Protocol; conditions: Amaranthus retroflexus, post-emergence, 312 h; for pest or weed control at 15.625 g/ha: 15.625 g ai/ha, evaluated after 13 days (100=total damage to plant; 0=no damage to plant), read-out: Pigweed, Redroot damage rating; for pest or weed control at 62.5 g/ha: 62.5 g ai/ha, read-out: Pigweed, Redroot damage rating (100=total damage to plant; 0=no damage to plant); for pest or weed control at 62.5 g/ha / pest or weed control at 250 g/ha: evaluated after 13 days; for pest or weed control at 250 g/ha: 250 g ai/ha, read-out: damage to plant, Pigweed, Redroot (100=total damage to plant; 0=no damage to plant)
Summary of the method: as §2

[12] = test system: barnyardgrass (Echinochloa crus-galli); test: Test G Post-Emergence Protocol; conditions: Echinochloa crus-galli, post-emergence, 312 h; for pest or weed control at 15.625 g/ha: 15.625 g ai/ha, evaluated after 13 days (100=total damage to plant; 0=no damage to plant), read-out: Barnyardgrass damage rating; for pest or weed control at 62.5 g/ha: 62.5 g ai/ha, read-out: Barnyardgrass damage rating (100=total damage to plant; 0=no damage to plant); for pest or weed control at 62.5 g/ha / pest or weed control at 250 g/ha: evaluated after 13 days; for pest or weed control at 250 g/ha: 250 g ai/ha, read-out: damage to plant, Barnyardgrass (100=total damage to plant; 0=no damage to plant)
Summary of the method: as §2

Compound | plant injury at 15.625 g/ha (corn (Zea mays) [1]) [%] | plant injury at 62.5 g/ha (corn (Zea mays) [1]) [%] | plant injury at 250 g/ha (corn (Zea mays) [1]) [%] | pest or weed control at 15.625 g/ha [2] [%] | pest or weed control at 62.5 g/ha [2] [%] | pest or weed control at 250 g/ha [2] [%] | pest or weed control at 15.625 g/ha [3] [%] | pest or weed control at 62.5 g/ha [3] [%] | pest or weed control at 250 g/ha [3] [%] | pest or weed control at 15.625 g/ha [4] [%] | pest or weed control at 62.5 g/ha [4] [%] | pest or weed control at 250 g/ha [4] [%] | pest or weed control at 15.625 g/ha [5] [%] | pest or weed control at 62.5 g/ha [5] [%] | pest or weed control at 250 g/ha [5] [%] | pest or weed control at 15.625 g/ha [6] [%] | pest or weed control at 62.5 g/ha [6] [%] | pest or weed control at 250 g/ha [6] [%] | plant injury at 15.625 g/ha (corn (Zea mays) [7]) [%] | plant injury at 62.5 g/ha (corn (Zea mays) [7]) [%] | further results
CN1C[C@H](c2ccc(C(F)(F)F)cc2)[C@@H](C(=O)Nc2ccc(F)cc2[N+](=O)[O-])C1=O (racemic) [Compound 1425] | 0 | 0 | 0 | 10 | 80 | 80 | 0 | 0 | 0 | 0 | 0 | 0 | 0 | 0 | 0 | 0 | 40 | 60 | 10 | 10 | plant injury at 250 g/ha (corn (Zea mays) [7]): 10%; pest or weed control at 15.625 g/ha [8]: 10%; pest or weed control at 62.5 g/ha [8]: 40%; pest or weed control at 250 g/ha [8]: 50%; pest or weed control at 15.625 g/ha [9]: 0%; pest or weed control at 62.5 g/ha [9]: 0%; pest or weed control at 250 g/ha [9]: 0%; pest or weed control at 15.625 g/ha [10]: 0%; pest or weed control at 62.5 g/ha [10]: 0%; pest or weed control at 250 g/ha [10]: 0%; pest or weed control at 15.625 g/ha [11]: 20%; pest or weed control at 62.5 g/ha [11]: 30%; pest or weed control at 250 g/ha [11]: 40%; pest or weed control at 15.625 g/ha [12]: 0%; pest or weed control at 62.5 g/ha [12]: 20%; pest or weed control at 250 g/ha [12]: 20%
CN1C[C@H](c2ccc(C(F)(F)F)cc2)[C@@H](C(=O)Nc2ccc(C(F)(F)F)cc2F)C1=O (racemic) [Compound 1426] | 0 | 0 | 0 | 0 | 50 | 70 | 0 | 0 | 0 | 0 | 0 | 0 | 0 | 0 | 0 | 0 | 10 | 20 | 10 | 0 | plant injury at 250 g/ha (corn (Zea mays) [7]): 10%; pest or weed control at 15.625 g/ha [8]: 0%; pest or weed control at 62.5 g/ha [8]: 0%; pest or weed control at 250 g/ha [8]: 40%; pest or weed control at 15.625 g/ha [9]: 0%; pest or weed control at 62.5 g/ha [9]: 0%; pest or weed control at 250 g/ha [9]: 0%; pest or weed control at 15.625 g/ha [10]: 0%; pest or weed control at 62.5 g/ha [10]: 0%; pest or weed control at 250 g/ha [10]: 0%; pest or weed control at 15.625 g/ha [11]: 0%; pest or weed control at 62.5 g/ha [11]: 10%; pest or weed control at 250 g/ha [11]: 10%; pest or weed control at 15.625 g/ha [12]: 0%; pest or weed control at 62.5 g/ha [12]: 0%; pest or weed control at 250 g/ha [12]: 20%
Cc1cccc(NC(=O)[C@H]2C(=O)N(C)C[C@@H]2c2ccc(C(F)(F)F)cc2)n1 (racemic) [Compound 1429] | 0 | 0 | 0 | 0 | 70 | 80 | 0 | 0 | 0 | 0 | 0 | 50 | 0 | 0 | 0 | 0 | 40 | 70 | 10 | 0 | plant injury at 250 g/ha (corn (Zea mays) [7]): 10%; pest or weed control at 15.625 g/ha [8]: 0%; pest or weed control at 62.5 g/ha [8]: 30%; pest or weed control at 250 g/ha [8]: 40%; pest or weed control at 15.625 g/ha [9]: 0%; pest or weed control at 62.5 g/ha [9]: 10%; pest or weed control at 250 g/ha [9]: 20%; pest or weed control at 15.625 g/ha [10]: 0%; pest or weed control at 62.5 g/ha [10]: 0%; pest or weed control at 250 g/ha [10]: 30%; pest or weed control at 15.625 g/ha [11]: 0%; pest or weed control at 62.5 g/ha [11]: 0%; pest or weed control at 250 g/ha [11]: 80%; pest or weed control at 15.625 g/ha [12]: 0%; pest or weed control at 62.5 g/ha [12]: 10%; pest or weed control at 250 g/ha [12]: 20%
